For test [1], the system named is MDA-MB-231 (breast) cancer cells. The test can be described thus: Cell viability (MTT) assay, MDA cells. Particulars: Homo sapiens, MTT based assay. Background: Formazan colour is commonly taken as a measure of viable cells.
Test [2] addresses T1, XIAP L-Bir2-Bir3 (GST-XIAP Linker Bir2Bir3RING fusion protein) (Homo sapiens, UniProt P98170).
T1 construct: made in house; host or cells: E. coli DH5-alpha
Nature of the test: Caspase de-repression assay using cellular extracts (apoptosome), L-Bir2-Bir3 XIAP. In kind it is biochemical. Particulars: 293 cell S100 extract; effective concentration to achieve 50% of activation. The method, then:
GST-linker BIR2BIR3Ring: XIAP coding sequence from amino acids 93-497 cloned into PGex4T1 via BamH1 and XhoI. Amino acids 93-497 were amplified from full length XIAP in pGex4t3, using the primers: […] and GCTGCATGTGTGTCAGAGG, using standard PCR conditions. The PCR fragment was TA cloned into pCR-2.1 (invitrogen). Linker BIR2BIR3Ring was subcloned into pGex4T1 by BamHI/XhoI digestion. The plasmid was transformed into E. coli DH5α for use in protein expression and purification. […]
100 ug of 293 cell S100 extract and 0.25 uM-2 uM of GST-XIAP fusion protein (XIAP-Bir3RING, XIAP-Linker Bir2Bir3RING, or full-length XIAP) were co-incubated with serial dilutions of compound (40 uM-5 pM). Caspases present in the extracts were activated by adding 1 mM dATP, 0.1 mM ALLN, 133 ug Cytochrome C (final concentrations), and incubating at 37° C. for 25 minutes. All reactions and dilutions used S100 buffer (50 mM Pipes pH 7.0, 50 mM KCl, 0.5 mM EGTA pH 8.0, 2 mM MgCl2 supplemented with 1/1000 dilutions of 2 mg/ml Cytochalisin B, 2 mg/ml Chymotstatin, Leupeptin, Pepstatin, Antipain, 0.1M PMSF, 1M DTT). Final reaction volume was 30 ul. Caspase-3 activity was measured by overlaying 30 ul of a 0.4 mM DEVD-AMC solution. released AMC cleavage was measured in a TECAN spectrophotometer at 360 nm excitation and 444 nm emission, on a kinetic cycle of 1 hour with readings taken every 5 minutes. Caspase activity was calculated as Vo of AMC fluorescence/sec. Caspase de-repression by our compounds was compared to fully activated extract and activated extract repressed by the presence of XIAP fusion protein.

Test [3] addresses T2, XIAP bir3 domain (GST-XIAP BIR3RING) (Homo sapiens, UniProt P98170).
T2 construct: made in house; host or cells: E. coli DH5-alpha
The test can be described thus: Fluorescence polarization-based competition assay, XIAP. In kind it is binding. Particulars: Ki calculated from displacement of fluorescent probe; read-out: Fluorescent polarization (FP) assay Xiap. The method, then:
GST-XIAP BIR3RING: XIAP coding sequence amino acids 246-497 cloned into PGEX2T1 via BamH1 and AVA I. The plasmid was transformed into E. coli DH5a for use in protein expression and purification.
(§1) A fluorescent peptide probe, Fmoc-Ala-Val-Pro-Phe-Tyr(t-Bu)-Leu-Pro-[…]-Gly-OH was prepared using standard Fmoc chemistry on 2-chlorotrityl chloride resin (Int. J. Pept. Prot. Res. 38:555-561, 1991). Cleavage from the resin was performed using 20% acetic acid in dichloromehane (DCM), which left the side chain still blocked. The C-terminal protected carboxylic acid was coupled to 4′-(aminomethy)fluorescein (Molecular Probes, A-1351; Eugene, Oreg.) using excess diisopropylcarbodiimide (DIC) in dimethylformamide (DMF) at room temperature and was purified by silica gel chromatography (10% methanol in DCM). The N-terminal Fmoc protecting group was removed using piperidine (20%) in DMF, and purified by silica gel chromatography (20% methanol in DCM, 0.5% HOAc). Finally, the t-butyl side chain protective groups were removed using 95% trifluoroacetic acid containing 2.5% water and 2.5% triisopropyl silane.
(§2) For all assays, the fluorescence and fluorescence-polarization was evaluated using a Tecan Polarion instrument with the excitation filter set at 485 nm and the emission filter set at 535 nm. For each assay, the concentration of the target protein was first establish by titration of the selected protein in order to produce a linear dose-response signal when incubated alone in the presence of the fluorescent probe. Upon establishing these conditions, the compounds potency (IC50) and selectivity, was assessed in the presence of a fix defined amount of target protein and fluorescent probe and a 10 point serial dilution of the selected compounds. For each IC50 curve, the assays were run as followed: 25 ul/well of diluted compound in 50 mM MES buffer pH 6.5 were added into a black 96 well plate then 25 ul/well of bovine serum albumin (BSA) at 0.5 mg/ml in 50 mM MES pH 6.5. Auto-fluorescence for each compound was first assessed by performing a reading of the compound/BSA solution alone. Then 25 ul of the fluorescein probe diluted into 50 mM MES containing 0.05 mg/ml BSA were added and a reading to detect quenching of fluorescein signal done. Finally 25 ul/well of the target or control protein (GST-BIRs) diluted at the appropriate concentration in 50 mM MES containing 0.05 mg/ml BSA were added and the fluorescence polarization evaluated.
(§3) For each assay the relative polarization-fluorescence units were plotted against the final concentrations of compound and the IC50 calculated using the Grad pad prism software and/or Cambridge soft. The ki value were derived from the calculated IC50 value as described above and according to the equation described in Nikolovska-Coleska, Z. (2004) Anal Biochem 332, 261-273.

Test [4] has as its system SKOV-3 (ovarian) cancer cells. The test can be described thus: Cell viability (MTT) assay, SKOV3 cells. Particulars: 72 hours, MTT based assay; compounds added either alone or in presence of 1-3 ng/ml of TRAIL. The method, then: MDA-MD-231 (breast) and SKOV-3 (ovarian) cancer cells were cultured in RPMI1640 media supplemented with 10% FBS and 100 units/mL of Penicillin and Steptomycin.
Viability assays were done on a number of cells including MDA-MB-231, SKOV-3, H460, PC3, HCT-116, and SW480 cells. Cells were seeded in 96 well plates at a respective density of 5000 and 2000 cells per well and incubated at 37° C. in presence of 5% CO2 for 24 hours. Selected compounds were diluted into the media at various concentration ranging from 0.01 uM up to 100 uM. Diluted compounds were added onto the MDA-MB-231 cells. For the MDA-MB-231 SKOV3, H460, PC3, HCT-116, and SW480 cells, the compounds were added either alone or in presence of 1-3 ng/ml of TRAIL. After 72 hours cellular viability was evaluated by MTT based assays.

Test [5] addresses T3, cIAP-2 bir3 domain (GST-HIAP1(cIAP-2) BIR3) (Homo sapiens, UniProt Q13489).
T3 construct: made in house; host or cells: E. coli DH5-alpha
Nature of the test: Fluorescence polarization-based competition assay, cIAP-2. In kind it is binding. Particulars: Ki calculated from displacement of fluorescent probe; read-out: Fluorescent polarization (FP) assay cIAP-2. The method, then: GST-HIAP1(cIAP-2) BIR3: HIAP1 coding sequence from amino acids 236-349, cloned into PGex4T3 via BamH1 and XhoI. The plasmid was transformed into E. coli DH5α for use in protein expression and purification.
as §1, §2, §3

In test [6] the target is T4, cIAP-1 bir3 domain (GST-HIAP2 (cIAP-1) BIR3) (Homo sapiens, UniProt Q13490).
T4 construct: made in house; host or cells: E. coli DH5-alpha
T4 sequence (Q13490 251-363): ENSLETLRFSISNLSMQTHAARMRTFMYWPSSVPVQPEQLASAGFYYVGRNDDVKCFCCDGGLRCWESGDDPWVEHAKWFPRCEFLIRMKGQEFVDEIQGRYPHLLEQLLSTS
The test can be described thus: Fluorescence polarization-based competition assay, cIAP-1. Particulars: Ki calculated from displacement of fluorescent probe; read-out: Fluorescent polarization (FP) assay cIAP-1. In kind it is binding. As for the experimental part:
GST-HIAP2 (cIAP-1) BIR3: HIAP2 coding sequence from amino acids 251-363 cloned into PGex4T3 via BamH1 and XhoI. The plasmid was transformed into E. coli DH5α for use in protein expression and purification.
as §1, §2, §3

The next test has as its system HCT-116 tumors. Nature of the test: Combination anti-cancer therapy in vivo (HCT-116 tumors, with mitomycin-C). Particulars: HCT-116 tumors in female nude mice. As for the experimental part: Female nude mice received […] HCT-116 subdermally on the right flank. On day 26, when tumors were […], animals were assigned to groups using a balanced design based on tumor size. At that time mitomycin-C and Compound 23 treatment was initated. Mitomycin-C was administered ip at 1 mg/kg, Monday through Friday for two weeks. Compound 23 was given iv at 1 or 5 mg/kg five times per week for the duration of the experiment. Tumor measurements were taken twice weekly.

A value given as a limit tells only on which side of the number the result lay.

T1 sequence (P98170 93-497): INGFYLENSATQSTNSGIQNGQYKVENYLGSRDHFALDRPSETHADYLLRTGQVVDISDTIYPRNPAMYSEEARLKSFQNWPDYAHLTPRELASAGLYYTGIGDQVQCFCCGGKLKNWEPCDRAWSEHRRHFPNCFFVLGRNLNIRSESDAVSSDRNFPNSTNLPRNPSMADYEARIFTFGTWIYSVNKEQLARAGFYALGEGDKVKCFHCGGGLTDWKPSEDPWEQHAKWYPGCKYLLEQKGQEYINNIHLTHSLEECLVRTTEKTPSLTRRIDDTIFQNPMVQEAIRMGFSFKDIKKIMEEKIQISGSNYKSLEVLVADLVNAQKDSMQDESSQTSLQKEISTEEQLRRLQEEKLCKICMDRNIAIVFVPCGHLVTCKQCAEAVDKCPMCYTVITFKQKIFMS
T3 sequence (Q13489 236-349): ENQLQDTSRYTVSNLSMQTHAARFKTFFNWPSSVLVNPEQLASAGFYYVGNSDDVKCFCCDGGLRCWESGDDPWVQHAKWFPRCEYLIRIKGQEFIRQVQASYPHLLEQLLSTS
T2 sequence (P98170 246-497): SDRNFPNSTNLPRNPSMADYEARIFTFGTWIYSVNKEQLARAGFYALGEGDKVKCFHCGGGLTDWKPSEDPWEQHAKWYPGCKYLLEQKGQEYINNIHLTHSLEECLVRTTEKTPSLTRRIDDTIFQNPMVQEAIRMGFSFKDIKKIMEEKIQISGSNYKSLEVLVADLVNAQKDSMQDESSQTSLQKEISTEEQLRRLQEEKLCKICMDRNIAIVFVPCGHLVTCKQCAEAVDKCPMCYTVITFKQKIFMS

For orientation: EC50 means the concentration at which the effect is half-maximal. The term IC50 denotes the concentration needed to halve the response being measured. Higher therefore signals weaker potency. For the compound `CN[C@@H](C)C(=O)N[C@H](C(=O)N1CCC[C@H]1CN(CCc1ccccc1)C(=O)C(F)(F)F)[C@@H](C)OCC#CC#CCO[C@H](C)[C@H](NC(=O)[C@H](C)NC)C(=O)N1CCC[C@H]1CN(CCc1ccccc1)C(=O)C(F)(F)F` [Compound 1], the EC50 in test [1] (MDA-MB-231, 72 h) is < 100 nM; in test [4] it was < 100 nM. The concentration for half-maximal inhibition (IC50) in test [2] is ≤ 100 nM. The values for the Ki in test [3], in test [5] and in test [6] were ≤ 100 nM, ≥ 100 nM and ≥ 100 nM, respectively.

As for `CN[C@@H](C)C(=O)N[C@@H](COCc1ccc(COC[C@H](NC(=O)[C@H](C)NC)C(=O)N2CCC[C@H]2CN(CCc2ccccc2)C(=O)C(F)(F)F)cc1)C(=O)N1CCC[C@H]1CN(CCc1ccccc1)C(=O)C(F)(F)F` [Compound 11], the concentration for a half-maximal effect (EC50) in test [1] (MDA-MB-231, 72 h) was < 100 nM. Besides, in test [2], the IC50 is ≥ 1000 nM. In test [5], the Ki was ≥ 100 nM.

On to `CN[C@@H](C)C(=O)N[C@@H](COCc1ccc(-c2ccc(COC[C@H](NC(=O)[C@H](C)NC)C(=O)N3CCC[C@H]3CN(CCc3ccccc3)C(=O)C(F)(F)F)cc2)cc1)C(=O)N1CCC[C@H]1CN(CCc1ccccc1)C(=O)C(F)(F)F` [Compound 12], for which the half-maximal effective concentration (EC50) in test [1] (MDA-MB-231, 72 hours) was < 100 nM. Further, the IC50 in test [2] was ≥ 1000 nM. Further, the results for the Ki in test [3], in test [5] and in test [6] were ≥ 100 nM, ≤ 5 nM and ≤ 100 nM, respectively.

Take `CN[C@@H](C)C(=O)N[C@H](C(=O)N1CCC[C@H]1C(=O)N[C@@H]1CCCc2ccccc21)[C@@H](C)OCC#CC#CCO[C@H](C)[C@H](NC(=O)[C@H](C)NC)C(=O)N1CCC[C@H]1C(=O)N[C@@H]1CCCc2ccccc21` [Compound 23]: the EC50 in test [1] (MDA-MB-231, 72 h) is < 100 nM; in test [4], < 100 nM. Also, the “anti-tumor effect at 5 mg/kg compared to the 1 mg/kg dose” value in the test with HCT-116 tumors (5 mg/kg iv in combination with mitomycin-C ip 1 mg/kg) is on record as “superior anti-tumor effects”. Also, the “anti-tumor effect in combination with mitomycin-C” value in the test on HCT-116 tumors (iv at 1 or 5 mg/kg five times per week, mitomycin-C ip 1 mg/kg) is recorded as “increasing anti-tumor effect in combination with mitomycin-C with increasing dose”. Also, the IC50 in test [2] is ≤ 500 nM. Moreover, the Ki in test [3] was ≤ 100 nM; in test [5], ≤ 100 nM; in test [6], ≤ 5 nM.

For the compound `CN[C@@H](C)C(=O)N[C@H](C(=O)N1CCC[C@H]1CN(CCc1ccccc1)C(=O)[C@H](N)Cc1ccc(OC)cc1)[C@@H](C)OCC#CC#CCO[C@H](C)[C@H](NC(=O)[C@H](C)NC)C(=O)N1CCC[C@H]1CN(CCc1ccccc1)C(=O)[C@H](N)Cc1ccc(OC)cc1` [Compound 2], the EC50 in test [1] (MDA-MB-231, 72 hours) was < 100 nM. For the same compound, in test [2], the IC50 is ≤ 100 nM. In addition, the Ki in test [3] is ≤ 100 nM; in test [5] it was ≥ 100 nM; in test [6] it was ≤ 100 nM.

On to `CN[C@@H](C)C(=O)N[C@H](C(=O)N1CCC[C@H]1CN(CCc1ccccc1)C(=O)c1ccccc1)[C@@H](C)OCC#CC#CCO[C@H](C)[C@H](NC(=O)[C@H](C)NC)C(=O)N1CCC[C@H]1CN(CCc1ccccc1)C(=O)c1ccccc1` [Compound 3], for which, in test [1] (MDA-MB-231, 72 h), the EC50 was < 100 nM. The IC50 in test [2] is ≤ 500 nM. The Ki in test [3] is ≤ 100 nM; in test [5] it was ≤ 5 nM; in test [6], ≤ 100 nM.

Source of the values: patent US8063095B2, “IAP BIR domain binding compounds” (Pharmascience Inc., priority 2005, dated 2011).
